Data as given in US20250154198A1, “PEPTIDE INHIBITORS OF INTERLEUKIN-23 RECEPTOR” (Zealand Pharma A/S, priority 2021, published 2025).
*1 amine or outer side, *2 acyl side, *3 side chain or, on linkers, in order; H or OH if unused. Where a SMILES comes first, the peptide text is derived from it. Bridges are numbered along the chain shown (N, C = ends). [ ]: non-standard residue; d: D form. Ala(quinolin-3-yl) = N[C@@H](Cc1cnc2ccccc2c1)C(=O)O; 2Nal = N[C@@H](Cc1ccc2ccccc2c1)C(=O)O; AEF = NCCOc1ccc(C[C@H](N)C(=O)O)cc1; X24 = O=C(CCc1ccc(N[*:1])cc1)[*:2]; X1 = O=C(Cc1ccc(CN[*:1])cc1)[*:2]; 3Pal = N[C@@H](Cc1cccnc1)C(=O)O; αMeL = CC(C)C[C@](C)(N)C(=O)O; CH2COCH2 = O=C(C[*:1])C[*:2]; αMeV = CC(C)[C@](C)(N)C(=O)O; 3Amb = NCc1cccc(C(=O)O)c1; Orn = NCCC[C@H](N)C(=O)O; Dab = NCC[C@H](N)C(=O)O

Each compound was assayed against T1, human IL-23R (Homo sapiens, UniProt Q5VWK5) (assay: Binding assay (NanoBRET displacement of fluorophore-labelled reference compound) for estimating binding affinity to human IL-23R). Settings: not given.
T1 construct: UniProtKB—Q5VWK5, amino acids 22-629; secretion signal of the plasmid (Promega N1371); expressed in transfected cells
T1 sequence (Q5VWK5 22-629): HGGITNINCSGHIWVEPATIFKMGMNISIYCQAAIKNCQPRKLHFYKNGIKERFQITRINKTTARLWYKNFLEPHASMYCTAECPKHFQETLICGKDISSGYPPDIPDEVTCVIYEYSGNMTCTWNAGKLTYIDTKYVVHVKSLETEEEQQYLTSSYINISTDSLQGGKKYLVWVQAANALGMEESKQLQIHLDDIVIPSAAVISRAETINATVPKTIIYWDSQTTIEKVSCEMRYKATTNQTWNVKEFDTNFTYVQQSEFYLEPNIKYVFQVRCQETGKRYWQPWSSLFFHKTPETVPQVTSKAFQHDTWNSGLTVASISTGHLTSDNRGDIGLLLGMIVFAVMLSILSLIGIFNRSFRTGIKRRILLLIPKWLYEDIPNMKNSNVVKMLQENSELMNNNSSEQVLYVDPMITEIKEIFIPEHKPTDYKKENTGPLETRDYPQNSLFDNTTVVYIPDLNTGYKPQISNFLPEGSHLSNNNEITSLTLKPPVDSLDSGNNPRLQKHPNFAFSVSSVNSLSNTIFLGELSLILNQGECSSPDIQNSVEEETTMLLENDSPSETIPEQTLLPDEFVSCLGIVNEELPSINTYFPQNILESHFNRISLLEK
Excerpt: Binding Assay for Estimating Binding Affinity of Compounds to Human IL-23R
The compound binding affinity for IL-23R was estimated by the ability of compounds to displace a fluorophore-labelled reference compound from the human IL-23R. The assay principle relies on Bioluminescence Resonance Energy Transfer (BRET) between a fluorophore-labelled reference compound binding to the IL-23R part of a fusion protein consisting of the IL-23R fused to a Nanoluc luciferase enzyme (Nanoluc). The Nanoluc is placed in the N-terminus in close proximity to the binding domain of the ligand. Upon close proximity between the fluorophore of the fluorophore-labelled compound and the Nanoluc of the fusion protein, bioluminescence energy generated from conversion of a Nanoluc substrate, is transferred to the fluorophore resulting in an increase in BRET. In presence of an unlabelled compound, the unlabelled compound displaces the fluorophore-labelled peptide from its binding site resulting in a decrease in BRET. The concentration for which half of the fluorophore-labelled peptide is displaced by the unlabelled compound depends on the affinity of the compound for the IL-23R, and is termed the IC50 concentration. An estimated affinity (K) of the unlabelled compound for the IL-23R may be calculated using the Cheng-Prussov equation, which takes into account the concentration of the fluorophore-labelled compound used, and the affinity of the fluorophore-labelled compound for IL-23R.
The plasmid also contained a gene to confer resistance for the antibiotic hygromycin. A cell line stably expressing the Nluc-IL23R fusion protein was generated by transfection of HEK293 cells with the expression plasmid and selected with hygromycin for 3 weeks in Growth medium consisting of DMEM w/Glutamax-I containing, 10% V/V FBS, 1% V/V P/S, 1 mM Sodium Pyruvate, and 1×NEAA, and 0.3 mg/mL hygromycin. The remaining cells were propagated and considered a stable expressing Nluc-IL23R fusion protein pool clone.
Cells expressing the Nluc-IL23R fusion protein were expanded in Growth medium and membranes prepared by homogenization of a cell pellet from 18 T175 flasks (4° C. in subsequent steps). The cell pellet was lysed Tris 10 mM, 7.5, 1 mM EDTA and protease inhibitors (Complete, Roche) and homogenized using a 15 mL glass-dounce by 50 strokes. The homogenate was spun at spin @1500 rpm for 10 min, the supernatant transferred to SV-34 tubes and spun at 40000 g for 20 min at 4° C. to pellet the crude membranes. The supernatant was then removed, the pellet resuspended in 5 mL buffer containing 50 mM HEPES pH 7.4, 5 mM EGTA, and 5 mM MgCl2, and homogenized. Aliquots of the resuspended and homogenized membranes containing the Nluc-IL23R fusion protein were stored at −80° C. until use.
The plate was sealed with light impermeable plate seals, and incubated on a orbital shaker 400 rpm for 2 hours at room temperature. To determine the BRET ratio, the plate seal was removed and 25 μL of the Nanoluc substrate (Promega N1572) diluted 1:500 was added to each well and incubated for 1-2 minutes on an orbital shaker at 400 rpm. […] The BRET ratio was calculated as the fluorescence from the TAMRA/nanoluc bioluminescence. The IC50 for each compound was determined by computer-aided curve fitting using a 4-parameter logistic (4PL) non-linear model.

| SMILES | Ki |
| --- | --- |
| CC(C)C[C@@H]1NC(=O)[C@H](Cc2c[nH]c3ccccc23)NC(=O)[C@H](Cc2c[nH]c3ccccc23)NC(=O)[C@@H]2CSSC[C@H](NC(=O)[C@H](CO)NC(=O)[C@@H](NC(=O)[C@@H](N)CC(=O)O)CSCC(=O)CSC[C@@H](C(=O)N[C@@H](CCCNC(=N)N)C(N)=O)NC1=O)C(=O)N[C@@H](Cc1c[nH]c3ccccc13)C(=O)N[C@@H](CCC(N)=O)C(=O)N2 [Compound 53, H-DC(1a)SC(2b)WQC(2b)WWLC(1a)R-[NH2]] | > 1000 nM |

Same assay, conditions: Table 2-10b; read-out: Ki IL-23R

| Ki | SMILES |
| --- | --- |
| 2 nM | CC(C)C[C@]1(C)NC(=O)[C@H](Cc2ccc3ccccc3c2)NC(=O)[C@H](Cc2ccc(OCCN)cc2)NC(=O)[C@@H]2CSCC(=O)CSC[C@H](NC(=O)[C@H](CO)NC(=O)CCc3ccc(cc3)NC(=O)CC[C@@H](C(=O)N[C@@H](CCCNC(=N)N)C(N)=O)NC1=O)C(=O)N[C@@H](Cc1c[nH]c3ccccc13)C(=O)N[C@@H](CCC(N)=O)C(=O)N2 [Compound 51, [3-(4-Aminophenyl)propanoyl](1c)*SC(2a)WQC(2a)[Y(2-aminoethoxy)][2-Nal][2-Me-Leu]E(1c)R-[NH2]] ([X24]SCWQC[AEF][2Nal][αMeL]ER-NH2; linker 3-6 via CH2COCH2; lactam N-10) |

Same assay, conditions: Table 3-1; read-out: Ki hIL-23R

| Ki | SMILES |
| --- | --- |
| 0.0995 nM | CC(C)C[C@]1(C)NC(=O)[C@H](Cc2ccc3ccccc3c2)NC(=O)[C@H](Cc2ccc(OCCN)cc2)NC(=O)[C@@H]2CSCC(=O)CSC[C@H](NC(=O)[C@H](CO)NC(=O)Cc3ccc(cc3)CNC(=O)CC[C@@H](C(=O)N[C@H](CCCNC(=N)N)C(=O)O)NC1=O)C(=O)N[C@@H](Cc1c[nH]c3ccccc13)C(=O)N[C@@H](CCC(N)=O)C(=O)N2 [Compound 108, [4-Aminomethyl-phenylacetyl](1c)*SC(2a)WQC(2a)[Y(2-aminoethoxy)][2-Nal][2-Me-Leu]E(1c)[{d}R]-[OH]] ([X1]SCWQC[AEF][2Nal][αMeL]E[dR]-OH; linker 3-6 via CH2COCH2; lactam N-10) |
| 0.0157 nM | CC[C@H](C)[C@@H]1NC(=O)c2cccc(c2)CNC(=O)CC[C@@H](C(=O)N[C@@H](CCN)C(=O)N[C@@H](Cc2cccnc2)C(N)=O)NC(=O)[C@](C)(C(C)C)NC(=O)[C@H](Cc2ccc3ccccc3c2)NC(=O)[C@H](Cc2ccc(OCCN)cc2)NC(=O)[C@@H]2CCNC(=O)CC[C@H](NC1=O)C(=O)N[C@@H](Cc1c[nH]c3ccccc13)C(=O)N[C@@H](CCC(N)=O)C(=O)N2 [Compound 156, [(3-Aminomethyl)benzoyl](1c)*IE(2c)WQ[Dab](2c)[Y(2-aminoethoxy)][2-Nal][2-Me-Val]E(1c)[Dab][3-(3-Pyridyl)-Ala]-[NH2]] ([3Amb]IEWQ[Dab][AEF][2Nal][αMeV]E[Dab][3Pal]-NH2; lactam 3-6, N-10) |
| 3.32 nM | CC(C)C[C@]1(C)NC(=O)[C@H](Cc2ccc3ccccc3c2)NC(=O)[C@H](Cc2ccc(OCCN)cc2)NC(=O)[C@@H]2CCC(=O)NCCC[C@H](NC(=O)[C@H](CO)NC(=O)c3cccc(c3)CNC(=O)CC[C@@H](C(=O)N[C@@H](CCCNC(=N)N)C(N)=O)NC1=O)C(=O)N[C@@H](Cc1c[nH]c3ccccc13)C(=O)N[C@@H](CCC(N)=O)C(=O)N2 (relative stereo) [Compound 68, [(3-Aminomethyl)benzoyl](1c)*S[Orn](2c)WQE(2c)[Y(2-aminoethoxy)][2-Nal][2-Me-Leu]E(1c)R-[NH2]] |
| 0.182 nM | CC(C)C[C@]1(C)NC(=O)[C@H](Cc2ccc3ccccc3c2)NC(=O)[C@H](Cc2ccc(OCCN)cc2)NC(=O)[C@@H]2CSCC(=O)CSC[C@H](NC(=O)[C@H](CO)NC(=O)Cc3ccc(cc3)CNC(=O)CC[C@@H](C(=O)N[C@H](CCC(N)=O)C(N)=O)NC1=O)C(=O)N[C@@H](Cc1c[nH]c3ccccc13)C(=O)N[C@@H](CCC(N)=O)C(=O)N2 [Compound 115, [4-Aminomethyl-phenylacetyl](1c)*SC(2a)WQC(2a)[Y(2-aminoethoxy)][2-Nal][2-Me-Leu]E(1c)[{d}Q]-[NH2]] ([X1]SCWQC[AEF][2Nal][αMeL]E[dQ]-NH2; linker 3-6 via CH2COCH2; lactam N-10) |
| 0.17 nM | CC(C)[C@]1(C)NC(=O)[C@H](Cc2ccc3ccccc3c2)NC(=O)[C@H](Cc2ccc(OCCN)cc2)NC(=O)[C@@H]2CCNC(=O)CC[C@H](NC(=O)[C@H](CO)NC(=O)Cc3ccc(cc3)CNC(=O)CC[C@@H](C(=O)N[C@@H](CCN)C(N)=O)NC1=O)C(=O)N[C@@H](Cc1c[nH]c3ccccc13)C(=O)N[C@@H](CCC(N)=O)C(=O)N2 [Compound 136, [4-Aminomethyl-phenylacetyl](1c)*SE(2c)WQ[Dab](2c)[Y(2-aminoethoxy)][2-Nal][2-Me-Val]E(1c)[Dab]-[NH2]] |
| 0.0117 nM | CC[C@H](C)[C@@H]1NC(=O)Cc2ccc(cc2)CNC(=O)CC[C@@H](C(=O)N[C@@H](CCN)C(=O)N[C@@H](Cc2cccnc2)C(N)=O)NC(=O)[C@](C)(C(C)C)NC(=O)[C@H](Cc2ccc3ccccc3c2)NC(=O)[C@H](Cc2ccc(OCCN)cc2)NC(=O)[C@@H]2CCNC(=O)CC[C@H](NC1=O)C(=O)N[C@@H](Cc1c[nH]c3ccccc13)C(=O)N[C@@H](CCC(N)=O)C(=O)N2 [Compound 157, [4-Aminomethyl-phenylacetyl](1c)*IE(2c)WQ[Dab](2c)[Y(2-aminoethoxy)][2-Nal][2-Me-Val]E(1c)[Dab][3-(3-Pyridyl)-Ala]-[NH2]] ([X1]IEWQ[Dab][AEF][2Nal][αMeV]E[Dab][3Pal]-NH2; lactam 3-6, N-10) |
| 2.76 nM | CC(C)C[C@]1(C)NC(=O)[C@H](Cc2ccc3ccccc3c2)NC(=O)[C@H](Cc2ccc(OCCN)cc2)NC(=O)[C@@H]2CCCNC(=O)CC[C@H](NC(=O)[C@H](CO)NC(=O)c3cccc(c3)CNC(=O)CC[C@@H](C(=O)N[C@@H](CCCNC(=N)N)C(N)=O)NC1=O)C(=O)N[C@@H](Cc1c[nH]c3ccccc13)C(=O)N[C@@H](CCC(N)=O)C(=O)N2 [Compound 69, [(3-Aminomethyl)benzoyl](1c)*SE(2c)WQ[Orn](2c)[Y(2-aminoethoxy)][2-Nal][2-Me-Leu]E(1c)R-[NH2]] ([3Amb]SEWQ[Orn][AEF][2Nal][αMeL]ER-NH2; lactam 3-6, N-10) |
| 0.163 nM | CC(C)C[C@]1(C)NC(=O)[C@H](Cc2ccc3ccccc3c2)NC(=O)[C@H](Cc2ccc(OCCN)cc2)NC(=O)[C@@H]2CSCC(=O)CSC[C@H](NC(=O)[C@H](CO)NC(=O)c3cccc(c3)CNC(=O)CC[C@@H](C(=O)N[C@@H](CCCNC(=N)N)C(=O)N[C@@H](Cc3cnc4ccccc4c3)C(N)=O)NC1=O)C(=O)N[C@@H](Cc1c[nH]c3ccccc13)C(=O)N[C@@H](CCC(N)=O)C(=O)N2 [Compound 149, [(3-Aminomethyl)benzoyl](1c)*SC(2a)WQC(2a)][Y(2-aminoethoxy)][2-Nal][2-Me-Leu]E(1c)R[3-(3-Quinolinyl)-Ala]-[NH2]] ([3Amb]SCWQC[AEF][2Nal][αMeL]ER[Ala(quinolin-3-yl)]-NH2; linker 3-6 via CH2COCH2; lactam N-10) |
